“Also recorded” adds a separate entry of the source. Where two headings read alike, the source gives them in different places.
Key:
[1] = test system: spirally cut trachea from the guinea pig; experiment: Bronchospasmolytic effect in vitro (Example 5a), spirally cut trachea; details: at ED50; pilocarpine contracted; racemic terbutaline
Method: Pharmacol. Exp. Ther. 90 (1947) page 104] and later modified by Constantine [J. Pharm. Pharmacol. 17 (1965) page 384]. In this test, guinea pigs are stunned with a blow on the head and bled to death. The trachea is dissected out, cut spirally and mounted in an organ bath (25 ml) in Krebs solution continuously aerated with oxygen (95%) and carbon dioxide (5%). […] The tension of the preparation is measured and is usually about 2 gm. initially. Dose response curves for epinephrine and each of the test compounds are then evaluated on the same muscle preparation.

[2] = test system: right auricle from the guinea pig; experiment: Dual preparation test in vitro, effect on auricle (Example 5c); details: slow infusion, FIGS. 2-4
From the text: (§1) [This procedure is more fully described below in Example 5 (b)].
(§2) FIG. 2 illustrates the effect of epinephrine (EPE) and terbutaline on spirally cut trachea and right auricle from the guinea pig. Both preparations are dissected out from the same animal and run under identical experimental conditions;
(§3) Both preparations are dissected out from the same animal, and run under identical experimental conditions;
(§4) Both preparations are dissected out from the same animal and run under identical experimental conditions;
(§5) The relation between the heart stimulatory effect and bronchodilator effect was studied in vitro on auricle-trachea-preparation from the guinea pig in order to compare the effect on the heart and the effect on the bronchial muscle under identical experimental conditions. Both spontaneously bearing auricle and spirally-cut trachea were placed in the same bath in Krebs solution. Both preparations were taken from the same animal.
(§6) The compound to be tested was slowly infused into the bathing solution and the tension was measured for each of the auricle and trachael preparations.
(§7) In carrying out this dual preparation test, epinephrine was used as a reference. […] Infusion of epinephrine was made over a period of ten minutes. After washing and recovery, the test solution was infused in the same manner and the effect of the test compound was compared with the effect of epinephrine.
Referring more specifically to FIG. 2, the upper portion of each chart thereof represents the tension continuously recorded of the auricle preparation (shaded area 1 for the effect of epinephrine on the auricle, ref. no. 2 for the effect of terbutaline infused at a rate of 0.2 μg/min on the auricle, and ref. no. 3 for the effect of terbutaline infused at a rate of 0.375μg/min on the auricle).

[3] = test system: spirally cut trachea from the guinea pig; experiment: Dual preparation test in vitro, effect on trachea (Example 5c); details: slow infusion; 0.375 μg/min where stated; FIGS. 2-4
From the text: as §1, §2, §3, §4, §5, §6, §7

isolated rabbit heart = experiment: Effect on isolated heart, Langendorff preparation (Example 5d)
Method: The effect of the compound of the present invention was also studied on isolated rabbit heart (Langendorff preparation) the method used as described by Anden et al. (Acta Pharmacol. et Toxicol., 21 (1964) page 247). In this procedure, the isolated heart is mounted in a Krebs solution and the test compound is injected into it. Measurements are continuously recorded of the rate and force of contraction.
The tests using epinephrine establish a standard of comparison to evaluate subsequent test compounds in the same preparation.

[4] = test system: sphincter of Oddi (choledochoduodenal sphincter); experiment: Effect on sphincter of Oddi (Example 5e); assay type: in vivo, cat
Method: The effect of terbutaline on the choledochoduodenal sphincter of young, healthy cats was studied. Young animals weighing at least 2.0 kg were used. After being deprived of food but not water for 24 hours, they were anesthetized with pentobarbitol (40 mg/kg i.p.). The terminal portion of a common bile duct was isolated and cannulated toward the duodenum. The hepatic part of the bile duct was drained to prevent distention. The pressure was continuously recorded by the open tip technique. Details of the experimental set up have been published by Liedberg and Halabi [Acta. Chir. Scand. 136 (1970) page 208.] Heart rate was recorded on all experiments and blood pressure by arterial cannulation in some.
Referring to the upper curve of FIGS. 7 and 8, the heart rate is continuously recorded. Concurrent records are made in the middle curve and lower curve of the pressures measured respectively in the common bile duct and in the lower duodenum.
As a control in this test, the animal was also treated with 0.5 international units per kg of cholecystokinin (CCK).
In a second test of the effect of terbutaline and isoprenaline on the sphincter (see FIG. 8), the duodenal motility was measured without being affected by CCK.

guinea pig trachea = experiment: Bronchospasmolytic effect in vitro (Example 13); details: based on ED50-values; weight basis; Table 7
Method: The trachea from a guinea pig was dissected out and spirally cut. It was mounted in a water-jacketed bath (37°C.) in Krebs solution and aerated with oxygen (95%) and carbon dioxide (5%). Pilocarpine (2 μg/ml) was added. The load was adjusted to about 2 g and relaxations in the trachea were recorded by means of a Grass force displacement transducer and a Grass polygraph model 5 (see Example 5 above). The cumulative method was used (-)-Epinephrine was used as reference. The comparisons presented in Table 7 are based on ED50 -values.

[5] = test system: bronchoconstriction by histamine aerosol; experiment: Protecting effect against histamine aerosol in guinea pigs (Example 15); assay type: in vivo, guinea pig; details: Cavia porcellus, read-out: ED50 (protecting 50 percent of the animals for more than 4 minutes)
From the text: Male guinea pigs (200--300 g) were used. Bronchoconstriction was produced by letting the animals inhale a histamine aerosol.

[6] = Toxicity study in mice (Example 18); assay type: in vivo; details: mouse, in vivo, mice (NMRI, male), 24 hours, read-out: LD 50 + Standard error
Method: The toxicity was studied in mice (NMRI, male, 18-28 g) 24 hours after i.v. and oral administration. The animals were observed during five days. No further deaths occurred.

asthmatic patients = experiment: Clinical trials, arterial oxygen tension in asthmatic patients; assay type: in vivo, human; details: a number of clinical trials
From the text: Because stimulation of the cardiovascular system is thought to be a cause of the adverse effects of many of the prior art compounds on blood oxygen pressures, it is expected that the compounds of the present invention will be less likely to lead to a fall in blood oxygen pressure then compounds such as epinephrine or isoprenaline. The compounds of the present invention have the added advantage of improved longevity of action over all of the compounds described above. […] This improvement has been observed in a number of clinical trials.

[7] = test system: bronchial muscle and heart
From the text: as §1

[8] = test system: cardioaccelerating effect; details: in vivo
From the text: as §1

[9] = anesthetized cats, concurrent with sphincter effect

## CC(C)(C)NCC(O)c1cc(O)cc(O)c1 (racemic) [terbutaline, 1-(3',5'-dihydroxyphenyl)-2-(t-butylamino)-ethanol]
[1]
  relaxation of trachea, activity relative to orciprenaline: about two
  relaxation of trachea, potency relative to (-)-epinephrine: slightly less potent than (-)-epinephrine
[2]; both preparations in same bath
  cardiac stimulation in relation to bronchodilator effect: bronchodilation was obtained without any effect on the heart muscle preparation
[2]; 0.375 μg/min where stated
  effect on auricle (tension): little observable effect on the auricle
[3]
  effect on trachea (relaxation): nearly comparable to that of epinephrine infused at the same rate
Isolated rabbit heart; cardiac/cardioaccelerating effect, FIGS. 5, 6
  effect on isolated heart relative to epinephrine: about one-fiftieth
Isolated rabbit heart; injection, FIG. 5
  effect on rate and force of isolated heart: weak
[4]; 5-10 μg/kg
  number of cats responding (the other five of 25): five
[4]; [9]
  duodenal pressure / motility: only slightly affects; also recorded: minimum effects
  heart rate: only slightly affects the heart rate; also recorded: minimum effects on heart rate
[4]; anesthetized cats, i.v., 1 μg/kg terbutaline in FIG. 7, FIG. 8
  common bile duct pressure / sphincter relaxation: substantially reduces the common bile duct pressures; also recorded: relaxed the sphincter
[4]; dose range 0.5-4.0 μg/kg
  number of cats responding (of 25): 20 cats
Guinea pig trachea
  bronchospasmolytic effect x (-)epinephrine: 0.8 ± 0.1
[5]; 0.5 h, oral, 30 minutes before histamine
  ED50: 0.4 mg/kg
[5]; ip, 0.25 h, i.p., 15 minutes before histamine
  ED50: 0.15 mg/kg
[6]; iv
  LD50 at 24 h: 52 ± 3 mg/kg
[6]; po
  LD50 at 24 h: 3200 mg/kg
Asthmatic patients
  arterial oxygen tension: improved arteriel oxygen tension in asthmatic patients
[7]
  duration of effect versus orciprenaline: longer than that of orciprenaline
[7]; in vitro and in vivo
  bronchodilator potency versus orciprenaline: more potent bronchodilator
[8]
  cardioaccelerating effect: weak cardioaccelerating effect

— patent US3937838A, “Orally active bronchospasmolytic compounds and their preparation” (priority 1966, dated 1976)
